Laboratory results reported in publication PMC4884932, “Selective brain penetrable Nurr1 transactivator for treating Parkinson's disease” (Oncotarget, 2016).

Columns and labels:
[1] = test system: tyrosine hydroxylase (TH)-positive DA neurons; test: DA neuron survival in primary ventral midbrain (VMB) culture; format: cell-based, mouse; details: co-treatment with IRX4204
Procedure: (§1) Ventral midbrain (VMB) from E13.5-14.5 C57BL/6 mouse embryos were dissected, triturated and plated on poly-D-lysine coated 12 well plates or glass coverslips with the serum-free chemically-defined Neurobasal medium, supplemented with 2% B27, 0.5mM L-glutamine, 50I.U./ml penicillin and 50μg/ml streptomycin (Gibco-BRL). […] For each time point, cells were washed once with phosphate buffered saline and fixed with 4% paraformaldehyde for TH immunofluorescent staining. For cell counting, 10 frames were randomly captured from each well using a Leica fluorescent microscope and a minimum of four replicates for each dose and each time point were analyzed for each experiment.

primary VMB neurons = test: Nurr1 downstream gene expression in VMB neurons (real time PCR); format: cell-based, mouse; details: HX531 100nM with 1nM IRX4204
Procedure: as §1
Total RNA from VMB neurons or rat substantia nigra were isolated using the RNeasy Mini Kit from Qiagen (Valencia, CA) and 1μg of total RNA was reverse transcribed using SuperScript III first-strand synthesis supermix for qRT-PCR from Invitrogen (Carlsbad, CA) according to the manufacturer's instruction. Quantitative RT-PCR was performed using Maxima SYBR Green master mix (Fermentas) in ABI Prism 7900HT in four replicates with primers amplifying the target genes. Expression level of actin was used as an internal control. Data were normalized using the 2^−ΔΔCt method. Levels of target gene mRNAs were expressed relative to those in vehicle control groups and plotted in GraphPad Prism.

Structure (SMILES): CN1c2ccc([N+](=O)[O-])cc2N=C(c2ccc(C(=O)O)cc2)c2cc3c(cc21)C(C)(C)CCC3(C)C [HX531, reference compound]
- effect on IRX4204-promoted survival of TH-positive DA neurons [1]: completely blocked
- effect on IRX4204-mediated increased expression of DAT (primary VMB neurons): totally abolished
- effect on IRX4204-mediated increased expression of DDC (primary VMB neurons): totally abolished
